Assay results taken from patent US20220259180A1, “BROAD SPECTRUM ANTIVIRAL COMPOUNDS TARGETING THE SKI COMPLEX” (priority 2019, published 2022).
“Also recorded” adds a separate entry of the source. Like-named read-outs stand apart in the source and are kept apart here.

Columns and labels:
[1] = tested on: Influenza virus; assay type: cell-based, influenza A virus NL09 strain; conditions: for first experiment PFU/ml: 0.1% DMSO control 100000; for Antiviral activity against Influenza virus / Flu titer (pfu/ml): A549 cells; for Antiviral activity against Influenza virus: screening at 50 μM, 10 μM (and 1 μM); for IC50: read-out: IC50 against IAV; for Flu titer (pfu/ml): plaque assay
[2] = tested on: SARS-CoV; assay type: cell-based; conditions: 24 h
[3] = tested on: IAV NS1; assay type: cell-based, influenza A virus
[4] = tested on: IAV NS1 mRNA; assay type: cell-based, influenza A virus
[5] = tested on: MERS-CoV; assay type: cell-based, MERS-CoV (Jordan strain); conditions: Huh7 cells, MOI 0.1, 24 h; read-out: IC50 against MERS-CoV
[6] = tested on: IAV RNA; experiment: Multi-segment RT-PCR (M-RTPCR) of all IAV segments; assay type: cell-based, influenza A virus
[7] = tested on: SARS-CoV-2; assay type: cell-based
[8] = tested on: SARS-CoV-2 mRNA; assay type: cell-based; conditions: two gene targets (N, RdRp)
[9] = tested on: IAV; experiment: Time of addition assay, IAV in A549 cells, plaque assay; assay type: cell-based, influenza A virus
[10] = tested on: Huh7 cells; conditions: 24 h, CellTiter-Glo
[11] = tested on: Marburg virus Angola strain (MARV); assay type: cell-based; conditions: Huh7 cells, 48 h; read-out: IC50 against MARV
[12] = tested on: Ebola virus Makona strain (EBOV); assay type: cell-based; conditions: Huh7 cells, 48 h; read-out: IC50 against EBOV
[13] = tested on: A549 cells; conditions: 24 h, CellTiter-Glo
[14] = 10 μM compound, DMSO (0.1%) control 153000
[15] = 50 μM compound, DMSO (0.5%) control 58700
[16] = 1 μm compound, DMSO (0.1%) control 153000

COc1ccc(CNC2CCCC2)c(OCC(O)CN2CCN(C)CC2)c1 (centres unmarked) [18-1]
first experiment PFU/ml ([1]; 10 μM screen): 60000 PFU/ml

COc1ccc(CNCCc2ccccc2C)c(OCC(O)CN2CCN(C)CC2)c1 (centres unmarked) [18-2]
first experiment PFU/ml ([1]; 10 μM screen): 500 PFU/ml
Antiviral activity against Influenza virus ([1]; listed as 27092311): increased activity

COc1ccc(CNC2Cc3ccccc3C2)c(OCC(O)CN2CCN(C)CC2)c1 (centres unmarked) [18-3]
first experiment PFU/ml ([1]; 10 μM screen): 12000 PFU/ml

COc1ccc(CNCCc2ccccc2Cl)c(OCC(O)CN2CCN(C)CC2)c1 (centres unmarked) [18-4]
first experiment PFU/ml ([1]; 10 μM screen): 7000 PFU/ml

COc1ccc(CNCC2CCCCC2)c(OCC(O)CN2CCN(C)CC2)c1 (centres unmarked) [18-5]
first experiment PFU/ml ([1]; 10 μM screen): 60000 PFU/ml

COc1ccc(CNCCc2ccccc2)c(OCC(O)CN2CCN(C)CC2)c1 (centres unmarked) [18-6]
first experiment PFU/ml ([1]; 10 μM screen): 10000 PFU/ml

COc1ccc(CNCCCn2ccnc2C)c(OCC(O)CN2CCN(C)CC2)c1 (centres unmarked) [18-7]
first experiment PFU/ml ([1]; 10 μM screen): 240000 PFU/ml

COc1ccc(CNC2CCCCCCC2)c(OCC(O)CN2CCN(C)CC2)c1 (centres unmarked) [18-8]
first experiment PFU/ml ([1]; 10 μM screen): 3000 PFU/ml

COc1ccc(CNCCc2cccnc2)c(OCC(O)CN2CCCCCCC2)c1 (centres unmarked) [18-9]
first experiment PFU/ml ([1]; 10 μM screen): 200000 PFU/ml

COc1ccc(CNC2CCCCC2)c(OCC(O)CN2CCN(C)CC2)c1 (centres unmarked) [18-10]
first experiment PFU/ml ([1]; 10 μM screen): 40000 PFU/ml

COCCCNCc1ccc(OC)cc1OCC(O)CN1CCN(C)CC1 (centres unmarked) [18-11]
first experiment PFU/ml ([1]; 10 μM screen): 100000 PFU/ml

COc1ccc(CNCC(F)(F)F)c(OCC(O)CN2CCN(C)CC2)c1 (centres unmarked) [18-12]
first experiment PFU/ml ([1]; 10 μM screen): 30000 PFU/ml

COc1ccc(CNCCCn2cccn2)c(OCC(O)CN2CCN(C)CC2)c1 (centres unmarked) [18-13]
first experiment PFU/ml ([1]; 10 μM screen): 40000 PFU/ml

COc1ccc(CNCCCSC)c(OCC(O)CN2CCCCCCC2)c1 (centres unmarked) [18-14]
first experiment PFU/ml ([1]; 10 μM screen): 44000 PFU/ml

COc1ccc(CNCCCn2ccnc2)c(OCC(O)CN2CCN(C)CC2)c1 (centres unmarked) [18-15]
Influenza virus plaque assay titer, 10 μM ([1]; compound at 10 μM, DMSO control 100000): 36000 PFU/virus/ml

COc1ccc(CNCCCSC)c(OCC(O)CN2CCN(C)CC2)c1 (centres unmarked) [18-16]
first experiment PFU/ml ([1]; 10 μM screen): 210000 PFU/ml

COc1ccc(CNCCc2ccccc2F)c(OCC(O)CN2CCN(C)CC2)c1 (centres unmarked) [18-lead, 1-[2-({[2-(2-fluorophenyl)ethyl]amino}methyl)-5-methoxyphenoxy]-3-(4-methyl-1-piperazinyl)-2-propanol]
first experiment PFU/ml ([1]; 10 μM screen): 2000 PFU/ml
1-24-20 (triplicate wells) PFU/ml ([1]; 10 μM screen, well 1, 0.1% DMSO control 23000): 1300 PFU/ml
1-24-20 (triplicate wells) PFU/ml ([1]; 10 μM screen, well 2, 0.1% DMSO control 19000): 1000 PFU/ml
1-24-20 (triplicate wells) PFU/ml ([1]; 10 μM screen, well 3, 0.1% DMSO control 29000): 4000 PFU/ml
1-24-20 (triplicate wells) PFU/ml ([1]; 50 μM screen, well 1, 0.5% DMSO control 21000): 600 PFU/ml
1-24-20 (triplicate wells) PFU/ml ([1]; 50 μM screen, well 2, 0.5% DMSO control 5300): 200 PFU/ml
1-24-20 (triplicate wells) PFU/ml ([1]; 50 μM screen, well 3, 0.5% DMSO control 15000): 300 PFU/ml

COc1ccc(CNCCc2ccccc2C)c(OCC(O)CN2CCN(C)CC2)c1 (centres unmarked) [UMB18-2]
Inhibition of SARS-CoV virus production ([2]; 10 μM): inhibition, but to a lesser extent
Reduction in SARS-CoV virus production ([2]; 50 μM): 1 log
NS1 protein [3]: lack of NS1 protein
NS1 mRNA [4]: marked reduction in mRNA
IC50 [5]: ~5 µM
IAV RNA amplified by M-RTPCR [6]: total loss of IAV RNA
IC50 [1]: ~5 µM
Inhibition of SARS-CoV-2 virus production (TCID50) [7]: capable of inhibiting virus production; also recorded: less so
SARS-CoV-2 mRNA production [8]: capable of inhibiting SARS-CoV-2 mRNA production
Inhibition of IAV, drug added 2 h after infection (+2 h) [9]: marked reduction in the level of inhibition

COc1ccc(CNCCc2ccccc2F)c(OCC(O)CN2CCN(C)CC2)c1 (centres unmarked) [UMB18]
NS1 protein [3]: lack of NS1 protein
Cell cytotoxicity at antiviral concentrations [10]: minimal toxicity
NS1 mRNA [4]: marked reduction in mRNA
IC50 [5]: ~5 µM
Antiviral activity against Influenza virus [1]: antiviral activity against influenza
IC50 [1]: ~5 µM
IC50 [11]: ~16 µM
IC50 [12]: ~5 µM
Inhibition of IAV, drug added 2 h after infection (+2 h) [9]: marked reduction in the level of inhibition
Cell cytotoxicity at antiviral concentrations [13]: minimal toxicity

COc1ccc(OC)c(Cc2nnc(CCC(=O)NC3CC(C)(C)CC(C)(C)C3)o2)c1 [compound 35434810, 3-4[5-(2,5-dimethoxybenzyl)-1,3,4-oxadiazol-2-yl]-N-(3,3,5,5-tetramethylcyclohexyl)propanamide]
Flu titer (pfu/ml) [1, 14]: 80000 pfu/ml
Flu titer (pfu/ml) [1, 15]: 130000 pfu/ml
Flu titer (pfu/ml) [1, 16]: 80000 pfu/ml

OCCN(Cc1nc(Cc2cccc(C(F)(F)F)c2)no1)CC12CC3CC(CC(C3)C1)C2 [compound 61121342]
Flu titer (pfu/ml) [1, 14]: 130000 pfu/ml
Flu titer (pfu/ml) [1, 15]: 50000 pfu/ml
Flu titer (pfu/ml) [1, 16]: 9000 pfu/ml
